Reference: PMC6756013, “B591, a novel specific pan-PI3K inhibitor, preferentially targets cancer stem cells” (Oncogene, 2019)

How the values were obtained:
[1] = tested on: eIF4E [nuc:cyto] ratio in SMMC7721, HepG2, MCF7, MDA-MB-231 and A549 cells; assay: Immunofluorescence and high content assay of eIF4E localization; assay type: cell-based; conditions: 5 h, five human cancer cell lines
Source text: The mRNA 5′ cap-binding protein eukaryotic initiation factor 4E (eIF4E) is a key regulator of cap-dependent translation initiation in the cytoplasm. Elevated level of eIF4E has been implicated in oncogenic transformation and tumorigenesis. The availability of eIF4E is tightly controlled through regulated interaction with 4E-BPs. eIF4E is predominantly cytoplasmic in mammalian cells, whereas serum-starvation and/or rapamycin-treatment: conditions that suppress mTOR signaling induces an accumulation of eIF4E within the nucleus. By using immunofluorescence assay, we assessed the effect of B591 on eIF4E subcellular localization of eIF4E. […] Further, five human cancer cell lines (SMMC7721, HepG2, MCF7, MDA-MB-231, and A549) were respectively treated with different concentrations of B591 for 5 h and eIF4E [nuc:cyto] ratios were determined by a high content assay using Thermo Scientific Cellomics ArrayScan VTI HCS.
Cells were seeded in 96-well plates (5,000 cells/well) and treated with DMSO or B591 for 5 h. Cells were then fixed with 4 % paraformaldehyde and followed by permeabilization with 0.1% triton X-100 and blocking in 2% bovine serum albumin in PBS. […] The subcellular location of eIF4E and the eIF4E nuclear–cytoplasmic intensity of each field per well was monitored and analyzed by using ArrayScan® VTI HCS Reader according to manufacturer’s instruction.

[2] = tested on: phosphorylation of Akt and ERK in RD cells; assay: Immunoblotting of feedback activation of Akt and ERK; assay type: cell-based, human; conditions: up to 24 h, B591 10 μM
Experimental: Fig. 2 B591 inhibits PI3K/Akt pathway in multiple cancer cell lines. a Representative images of Akt1 redistribution in IGF-1-treated cells in the absence or presence of B591. Scale bar represents 10 μm. Arrows indicate IGF-1-mediated membrane translocation detected by the image analysis algorithm. b Inhibition of mTORC1 and mTORC2 signaling in multiple cancer cell lines, exposed for 5 h to increasing concentrations of B591. c HepG2 cells were treated with DMSO or 20 μM of B591 for 5 h. Immunofluorescence (red) intensity reflects eIF4E subcellular distribution. Cells were visualized with high content reader. Representative images are shown, and scale bar represents 50 μm. d Nuclear-to-cytoplasmic ratio of eIF4E in five cancer cell lines was determined via high content reader. e The phosphorylation of AKT and ERK was determined by immunoblotting in RD cells in the presence of 10 μM of B591 after indicated time of exposure. f Inhibition of the phosphorylation of AKT and ERK in RD cells treated with B591, PI-103 or Rapamycin for 24 h was determined by immunoblotting
Despite a significant efficacy in preclinical models, the clinical tumor response to mTORC1 inhibitors, such as rapalogs, is modest. […]

[3] = tested on: MDA-MB-231 and SUM-159PT monolayer and mammosphere cells; assay: Apoptosis of monolayer versus mammosphere cells (PE-Annexin V/7-AAD); assay type: cell-based, human; conditions: 48 h
Experimental: Cells were treated with indicated agents for 48 h, and cells were harvested and processed for apoptosis assay using the PE-Annexin V/7-AAD Apoptosis Detection Kit. d Representative flow cytometry plots of apoptosis inducing activity of B591 (10 μM) and paclitaxel (10 nM) on monolayer and mammosphere MDA-MB-231 cells. e B591 preferentially targeted CD44^high/CD24^low cells. Cells were treated with B591 or paclitaxel for 2 days. Following a 4-day recovery period, cells were co-stained with CD44 and CD24 antibodies and subjected to FACS analysis. Representative flow cytometry plots show the effect of B591 on CD44^high/CD24^low population in MDA-MB-231 cells in vitro. f B591 decreased mammosphere forming efficiency. Primary MDA-MB-231 mammospheres were treated with B591 or paclitaxel for 48 h. Results of the secondary mammosphere-formation assay are shown. Scale bar represents 40 μm. g B591 decreased the expression of CSC markers in MDA-MB-231 cells. Cells were treated with B591 or paclitaxel for 2 days. […] They label a gated population in plots with axes CD44 and CD24. / Panel E: DMSO is the vehicle control. Its printed value is included all the same.
Supplementary Fig. S10. B591 preferentially targets CSCs. […] Following a 4-day recovery period, the expression of CSC markers was analyzed with western blot analysis.

SMILES: Cc1cc2c(cc1C)[n+](Cc1ccccc1Br)cn2Cc1ccc2c(c1)CCO2.[Br-] [B591, 3-(2-bromobenzyl)-1-((2,3-dihydrobenzofuran-5-yl)methyl) -5,6-dimethyl-1H-benzo[d]imidazol-3-ium bromide]
- eIF4E [nuc:cyto] ratio [1]: increased eIF4E [nuc:cyto] ratios in all the five cancer cells in a dose-dependent manner
- Phosphorylation of Akt and ERK [2]: effectively suppressed the phosphorylation of Akt and ERK over the whole time course of 24 h
- Apoptosis induction, mammosphere versus monolayer populations [3]: preferentially induced the apoptosis of mammosphere populations
